Results as given in patent publication US20200181104A1, “SSAO INHIBITORS AND USES THEREOF” (METACRINE, INC., priority 2018, published 2020).
Counter-ions that a name gives are not always drawn.

target: T1, Recombinant Human SSAO/VAP-1/AOC3 (Homo sapiens, UniProt Q16853); experiment: Human Semicarbazide-Sensitive Amine Oxidase (SSAO) Assay; assay type: biochemical; conditions: recombinant enzyme, 30 minutes preincubation at 37° C., benzylamine substrate, Amplex Ultra Red/HRP fluorescence
T1 construct: purchased R&D systems 3957-AO
T1 sequence (Q16853 1-763): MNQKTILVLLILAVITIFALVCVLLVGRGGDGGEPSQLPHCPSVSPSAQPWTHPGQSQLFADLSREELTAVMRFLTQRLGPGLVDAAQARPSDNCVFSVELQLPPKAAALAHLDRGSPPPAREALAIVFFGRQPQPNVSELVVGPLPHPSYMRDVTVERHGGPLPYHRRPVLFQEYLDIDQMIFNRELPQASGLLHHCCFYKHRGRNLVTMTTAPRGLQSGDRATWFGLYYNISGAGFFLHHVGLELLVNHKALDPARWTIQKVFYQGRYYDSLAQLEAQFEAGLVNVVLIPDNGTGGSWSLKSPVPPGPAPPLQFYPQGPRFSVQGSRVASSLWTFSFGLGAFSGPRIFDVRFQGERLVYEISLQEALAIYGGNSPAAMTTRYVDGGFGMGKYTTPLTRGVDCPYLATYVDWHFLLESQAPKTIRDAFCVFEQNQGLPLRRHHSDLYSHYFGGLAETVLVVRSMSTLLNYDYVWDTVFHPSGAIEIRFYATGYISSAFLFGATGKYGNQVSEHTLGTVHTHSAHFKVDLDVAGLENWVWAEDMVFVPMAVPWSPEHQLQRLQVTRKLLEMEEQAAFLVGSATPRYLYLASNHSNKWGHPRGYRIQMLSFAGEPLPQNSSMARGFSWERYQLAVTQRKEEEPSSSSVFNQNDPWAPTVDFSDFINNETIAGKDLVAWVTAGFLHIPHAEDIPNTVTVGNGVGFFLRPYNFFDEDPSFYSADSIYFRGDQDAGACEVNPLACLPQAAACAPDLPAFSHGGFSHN
In short: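 IC50 from kinetic Amplex Ultra Red/HRP fluorescence (ex 544, em 590 nm, 30-120 min) after benzylamine addition. Beforehand, 6-10 compound dilutions were preincubated 30 min at 37 °C with recombinant human SSAO in 50 mM HEPES (enzyme working concentration 2.5 μg/ml).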

Question: How did the IC50 turn out when `COCC1CN(C(=O)C23CCC(c4ccc(OC/C(=C/F)CN)cc4)(CC2)CC3)C1` [Compound 2.55, (E)-(4-(4-((2-(aminomethyl)-3-fluoroallyl)oxy)phenyl)bicyclo [2.2.2]octan-1-yl)(3-(methoxymethyl)azetidin-1-yl)methanone] was run?
Answer: ≤ 0.01 µM

Question: `CC(C)OC1CN(C(=O)C23CCC(c4ccc(OC/C(=C/F)CN)cc4)(CC2)CC3)C1` [Compound 2.56, (E)-(4-(4-((2-(aminomethyl)-3-fluoroallyl)oxy)phenyl)bicyclo [2.2.2]octan-1-yl)(3-isopropoxyazetidin-1-yl)methanone] was tested. Which IC50 did it give?
Answer: ≤ 0.01 µM

Question: For `N#CC1CN(C(=O)C23CCC(c4ccc(OC/C(=C/F)CN)cc4)(CC2)CC3)C1` [Compound 2.57, (E)-1-(4-(4-((2-(aminomethyl)-3-fluoroallyl)oxy)phenyl)bicyclo[2.2.2]octane-1-carbonyl)azetidine-3-carbonitrile], which IC50 is on record?
Answer: ≤ 0.01 µM

Question: `NC/C(=C\F)COc1ccc(C23CCC(C(=O)NC45CCC(O)(CC4)CC5)(CC2)CC3)cc1` [Compound 2.58, (E)-4-(4-((2-(aminomethyl)-3-fluoroallyl)oxy)phenyl)-N-(4-hydroxybicyclo[2.2.2]octan-1-yl)bicyclo[2.2.2]octane-1-carboxamide] was tested. Which IC50 did it give?
Answer: ≤ 0.01 µM

Question: Which IC50 does the source give for `NC/C(=C\F)COc1ccc(C23CCC(C(=O)N(CCO)C4CC4)(CC2)CC3)cc1` [Compound 2.59, (E)-4-(4-((2-(aminomethyl)-3-fluoroallyl)oxy)phenyl)-N-cyclopropyl-N-(2-hydroxyethyl)bicyclo[2.2.2] octane-1-carboxamide] here?
Answer: ≤ 0.01 µM

Question: How did the IC50 turn out when `NC/C(=C\F)COc1ccc(C23CCC(C(=O)N4CC(F)(CO)C4)(CC2)CC3)cc1` [Compound 2.60, (E)-(4-(4-((2-(aminomethyl)-3-fluoroallyl)oxy)phenyl)bicyclo[2.2.2]octan-1-yl)(3-fluoro-3-(hydroxymethyl)azetidin-1-yl)methanone] was run?
Answer: ≤ 0.01 µM

Question: How did the IC50 turn out when `NC/C(=C\F)COc1ccc(C23CCC(C(=O)NCCCO)(CC2)CC3)cc1` [Compound 2.61, (E)-4-(4-((2-(aminomethyl)-3-fluoroallyl)oxy)phenyl)-N-(3-hydroxypropyl)bicyclo[2.2.2] octane-1-carboxamide] was run?
Answer: ≤ 0.01 µM

Question: For `N#CC1(CNC(=O)C23CCC(c4ccc(OC/C(=C/F)CN)cc4)(CC2)CC3)CCOCC1` [Compound 2.62, (E)-4-(4-((2-(aminomethyl)-3-fluoroallyl)oxy)phenyl)-N-((4-cyanotetrahydro-2H-pyran-4-yl)methyl)bicyclo[2.2.2]octane-1-carboxamide], which IC50 is on record?
Answer: ≤ 0.01 µM

Question: Which IC50 does the source give for `NC/C(=C\F)COc1ccc(C23CCC(C(=O)NCC4(CO)CCOCC4)(CC2)CC3)cc1` [Compound 2.63, (E)-4-(4-((2-(aminomethyl)-3-fluoroallyl)oxy)phenyl)-N-((4-(hydroxymethyl)tetrahydro-2H-pyran-4-yl)methyl)bicyclo[2.2.2]octane-1-carboxamide] here?
Answer: ≤ 0.01 µM

Question: `NC/C(=C\F)COc1ccc(C23CCC(C(=O)NC4CCCOC4)(CC2)CC3)cc1` (stereo not shown) [Compound 2.64, (E)-4-(4-((2-(aminomethyl)-3-fluoroallyl)oxy)phenyl)-N-(tetrahydro-2H-pyran-3-yl)bicyclo[2.2.2]octane-1-carboxamide] was tested. Which IC50 did it give?
Answer: ≤ 0.01 µM

Question: How did the IC50 turn out when `CC1(NC(=O)C23CCC(c4ccc(OC/C(=C/F)CN)cc4)(CC2)CC3)CCCOC1` (stereo not shown) [Compound 2.65, (E)-4-(4-((2-(aminomethyl)-3-fluoroallyl)oxy)phenyl)-N-(3-methyltetrahydro-2H-pyran-3-yl)bicyclo[2.2.2]octane-1-carboxamide] was run?
Answer: ≤ 0.01 µM

Question: With `NC/C(=C\F)COc1ccc(C23CCC(C(=O)N4C5CCC4COC5)(CC2)CC3)cc1` [Compound 2.67, (E)-(4-(4-((2-(aminomethyl)-3-fluoroallyl)oxy)phenyl)bicyclo [2.2.2]octan-1-yl)(3-oxa-8-azabicyclo[3.2.1]octan-8-yl)methanone] as the molecule, how does the IC50 read?
Answer: ≤ 0.01 µM

Question: How did the IC50 turn out when `NC/C(=C\F)COc1ccc(C23CCC(C(=O)NCCC(=O)N4CCOCC4)(CC2)CC3)cc1` [Compound 2.68, (E)-4-(4-((2-(aminomethyl)-3-fluoroallyl)oxy)phenyl)-N-(3-morpholino-3-oxopropyl)bicyclo[2.2.2]octane-1-carboxamide] was run?
Answer: ≤ 0.01 µM

Question: For `NC/C(=C\F)COc1ccc(C23CCC(C(=O)NC4(c5ccccc5)CCOCC4)(CC2)CC3)cc1` [Compound 2.69, (E)-4-(4-((2-(aminomethyl)-3-fluoroallyl)oxy)phenyl)-N-(4-phenyltetrahydro-2H-pyran-4-yl)bicyclo[2.2.2]octane-1-carboxamide], which IC50 is on record?
Answer: ≤ 0.01 µM

Question: Which IC50 does the source give for `NC/C(=C\F)COc1ccc(C23CCC(C(=O)N4CC5CCC(C4)O5)(CC2)CC3)cc1` [Compound 2.71, (E)-(4-(4-((2-(aminomethyl)-3-fluoroallyl)oxy)phenyl)bicyclo [2.2.2]octan-1-yl)(8-oxa-3-azabicyclo[3.2.1]octan-3-yl)methanone] here?
Answer: ≤ 0.01 µM

Question: With `NC/C(=C\F)COc1ccc(C23CCC(C(=O)NC4(CO)CCOCC4)(CC2)CC3)cc1` [Compound 2.72, (E)-4-(4-((2-(aminomethyl)-3-fluoroallyl)oxy)phenyl)-N-(4-(hydroxymethyl)tetrahydro-2H-pyran-4-yl)bicyclo[2.2.2]octane-1-carboxamide] as the molecule, how does the IC50 read?
Answer: ≤ 0.01 µM

Question: `NC/C(=C\F)COc1ccc(C23CCC(C(=O)NC4(CO)CC4)(CC2)CC3)cc1` [Compound 2.73, (E)-4-(4-((2-(aminomethyl)-3-fluoroallyl)oxy)phenyl)-N-(1-(hydroxymethyl)cyclopropyl) bicyclo[2.2.2]octane-1-carboxamide] was tested. Which IC50 did it give?
Answer: ≤ 0.01 µM

Question: Which IC50 does the source give for `NC/C(=C\F)COc1ccc(C23CCC(C(=O)NCC(F)(F)CO)(CC2)CC3)cc1` [Compound 2.74, (E)-4-(4-((2-(aminomethyl)-3-fluoroallyl)oxy)phenyl)-N-(2,2-difluoro-3-hydroxypropyl)bicyclo[2.2.2] octane-1-carboxamide] here?
Answer: ≤ 0.01 µM

Question: Which IC50 does the source give for `NC/C(=C\F)COc1ccc(C23CCC(C(=O)NCCN4CCOCC4)(CC2)CC3)cc1` [Compound 2.75, (E)-4-(4-((2-(aminomethyl)-3-fluoroallyl)oxy)phenyl)-N-(2-morpholinoethyl)bicyclo[2.2.2] octane-1-carboxamide] here?
Answer: ≤ 0.01 µM

Question: For `NC/C(=C\F)COc1ccc(C23CCC(C(=O)Nc4ncco4)(CC2)CC3)cc1` [Compound 2.76, (E)-4-(4-((2-(aminomethyl)-3-fluoroallyl)oxy)phenyl)-N-(oxazol-2-yl)bicyclo[2.2.2]octane-1-carboxamide], which IC50 is on record?
Answer: ≤ 0.01 µM

Question: With `CC(C)(CO)CNC(=O)C12CCC(c3ccc(OC/C(=C/F)CN)cc3)(CC1)CC2` [Compound 2.77, (E)-4-(4-((2-(aminomethyl)-3-fluoroallyl)oxy)phenyl)-N-(3-hydroxy-2,2-dimethylpropyl)bicyclo[2.2.2] octane-1-carboxamide] as the molecule, how does the IC50 read?
Answer: ≤ 0.01 µM

Question: For `NC/C(=C\F)COc1ccc(C23CCC(C(=O)N4CC[C@@H]4CO)(CC2)CC3)cc1` [Compound 2.78, (R,E)-(4-(4-((2-(aminomethyl)-3-fluoroallyl)oxy)phenyl)bicyclo [2.2.2]octan-1-yl)(2-(hydroxymethyl)azetidin-1-yl)methanone], which IC50 is on record?
Answer: ≤ 0.01 µM

Question: How did the IC50 turn out when `COCCN(C)C(=O)C12CCC(c3ccc(OC/C(=C/F)CN)cc3)(CC1)CC2` [Compound 2.79, (E)-4-(4-((2-(aminomethyl)-3-fluoroallyl)oxy)phenyl)-N-(2-methoxyethyl)-N-methylbicyclo[2.2.2]octane-1-carboxamide] was run?
Answer: ≤ 0.01 µM

Question: How did the IC50 turn out when `NC/C(=C\F)COc1ccc(C23CCC(C(=O)NCc4ccccc4)(CC2)CC3)cc1` [Compound 2.80, (E)-4-(4-((2-(aminomethyl)-3-fluoroallyl)oxy)phenyl)-N-benzylbicyclo[2.2.2]octane-1-carboxamide] was run?
Answer: ≤ 0.01 µM

Question: With `Cc1n[nH]c(C)c1CNC(=O)C12CCC(c3ccc(OC/C(=C/F)CN)cc3)(CC1)CC2` [Compound 2.81, (E)-4-(4-((2-(aminomethyl)-3-fluoroallyl)oxy)phenyl)-N-((3,5-dimethyl-1H-pyrazol-4-yl)methyl)bicyclo[2.2.2]octane-1-carboxamide] as the molecule, how does the IC50 read?
Answer: ≤ 0.01 µM

Question: How did the IC50 turn out when `NC/C(=C\F)COc1ccc(C23CCC(C(=O)N4CC5(CCOCC5)C4)(CC2)CC3)cc1` [Compound 2.82, (E)-(4-(4-((2-(Aminomethyl)-3-fluoroallyl)oxy)phenyl)bicyclo[2.2.2]octan-1-yl)(7-oxa-2-azaspiro[3.5]nonan-2-yl)methanone Hydrochloride] was run?
Answer: ≤ 0.01 µM

Question: How did the IC50 turn out when `COCCCNC(=O)C12CCC(c3ccc(OC/C(=C/F)CN)cc3)(CC1)CC2` [Compound 2.83, (E)-4-(4-((2-(aminomethyl)-3-fluoroallyl)oxy)phenyl)-N-(3-methoxypropyl)bicyclo[2.2.2] octane-1-carboxamide] was run?
Answer: ≤ 0.01 µM

Question: Which IC50 does the source give for `NC/C(=C\F)COc1ccc(C23CCC(C(=O)NC4CC5CCC(C4)O5)(CC2)CC3)cc1` (stereo not shown) [Compound 2.84, (E)-4-(4-((2-(aminomethyl)-3-fluoroallyl)oxy)phenyl)-N-(8-oxabicyclo[3.2.1]octan-3-yl)bicyclo[2.2.2]octane-1-carboxamide] here?
Answer: ≤ 0.01 µM
